Data as given in patent publication US20130123368A1, “METHODS OF REDUCING 15-F2T-ISOP LEVELS IN MAMMALS” (BIOACTIVES, INC., priority 2007, published 2013).

How the values were obtained:
Caco-2 cell monolayers [1] = assay: Permeability of xanthohumol across Caco-2 cell monolayers; format: in vitro ADME; conditions: for Percent Recovery: Caco-2, B-to-A, 2 μM in HBSSg, 37° C.
Procedure: Percent Recovery=100×((Vr×Cr^final)+(Vd×Cd^final))/(Vd×C0)
Where: • dCr/dt is the slope of the cumulative concentration in the receiver compartment versus time in μM s^−1. • Vr is the volume of the receiver compartment in cm^3. • Vd is the volume of the donor compartment in cm^3. • A is the area of the cell-free insert (1.13 cm^2 for 12-well Transwell). • Cr^final is the cumulative receiver concentration in μM at the end of the incubation period. • Cd^final is the concentration of the donor in μM at the end of the incubation period. • C0 is the initial concentration of the dosing solution in μM.
Each determination was performed in duplicate.

Caco-2 cell monolayers [2] = assay: Certification of Caco-2 Transwell plates with reference compounds; format: in vitro ADME; conditions: plate certification TW12, passage 63, age 22 days
Procedure: To test the permeability of xanthohumol across Caco-2 cell monolayers, Caco-2 cell monolayers were grown to confluence on collagen-coated, microporous, polycarbonate membranes in 12-well Costar Transwell® plates. Details of the plates and their certification are shown below in Table 3. The test article was also the aqueous xanthohumol formulation, and the dosing concentration was 2 μM in the assay buffer (HBSSg) as in the previous example. Cell monolayers were dosed on the apical side (A-to-B) or basolateral side (B-to-A) and incubated at 37° C. with 5% CO2 in a humidified incubator. Samples were taken from the donor chamber at 120 minutes, and samples from the receiver chamber were collected at 60 and 120 minutes. Each determination was performed in duplicate. Lucifer yellow permeability was also measured for each monolayer after being subjected to the test article to ensure no damage was inflicted to the cell monolayers during the permeability experiment. All samples were assayed for Xanthohumol by LC/MS/MS using electrospray ionization. The apparent permeability (Papp), and percent recovery were calculated as described above.

Compound	Significant Efflux (Caco-2 cell monolayers [1]; Caco-2)	Percent Recovery (Caco-2 cell monolayers [1]; Average)	Percent Recovery (Caco-2 cell monolayers [1]; Rep. 1)	Absorption Potential (Caco-2 cell monolayers [1]; Caco-2, classification by Papp(A-to-B))	Lucifer yellow Papp, post-experiment integrity control (Caco-2 cell monolayers [1]; all monolayers after exposure to the test article) [×10⁻⁶ cm/s]	Papp (Caco-2 cell monolayers [2]) [×10⁻⁶ cm/s]
COc1cc(O)c(CC=C(C)C)c(O)c1C(=O)/C=C/c1ccc(O)cc1 [Xanthohumol, 2′,4′,4-trihydroxy-6′-methoxy-3′-prenylchalcone]	No	81	81	Medium (1.0 × 10^−6 cm/s > Papp(A-to-B) ≧ 0.5 × 10^−6 cm/s Medium)		
Lucifer Yellow [reference compound]					< 0.8	0.13
